Type in all cases: cell-based, human
Test [1] has as its system FcgRIIA on neutrophils. In words: FcgRIIA shedding, flow cytometry of neutrophil cell surface FcgRs. The following applies: for effect on R848 (TLR7/8)-mediated shedding of FcgRIIA on neutrophils: agent added before R848, flow cytometry IV.3; for neutrophil cell surface expression of FcgRIIA after stimulus: flow cytometry, clone IV.3, vs non-stimulated. The text has this:
To determine the mechanism for the TLR-induced reduction in RNP-IC phagocytosis, we analyzed the neutrophil surface expression of FcgRs after exposure to TLR ligand. Neutrophils were activated with R848 and cell surface expression of FcgRs analyzed by flow cytometry. The results were presented as FcgR levels as compared to no R848 added (% of control). The experiment was repeated five (FcgRI), seven (FcgRIII), and twenty-five (FcgRIIA) times; combined results were compared using paired t test (FcgRIIA, P<0.0001; FcgRI, P=0.027; FcgRIII, P=0.0044). […] In this experiment, neutrophils were activated with the TLR7/8 agonist R848 and analyzed for FcgRIIA at different time-points and concentrations. The experiment was repeated four (concentration) and six (kinetics) times; combined results were compared using paired t test (30 min, P=0.0158; 60 min, P<0.0001; 120 min, P=0.0003; 0.125 μg/mL, P=0.0071; 0.25 μg/mL, P=0.0058; 0.5 μg/mL, P=0.0008; 1 μg/mL, P<0.0001; 2 μg/mL, P<0.0001). […] For these experiments, neutrophils were activated with TLR ligands (LPS, 1 μg/mL, PAM3CSK4 (5 μg/mL), CpG DNA (2 μg/mL), Loxoribine (0.1 mM), CL075 (2.5 μg/mL) or R848 (2 μg/mL)) for 60 minutes or 4 hours and analyzed for FcgRIIA, FcgRII or CD11b and CD66b cell surface expression by flow cytometry. Experiments were repeated six (LPS, P=0.0008), eight (CpG DNA, P=0.035; Loxoribine, P<0.0001, and CL075, P<0.0001), ten (PAM3CSK4, P<0.0001) and forty times (R848, P<0.0001); combined results were compared using paired t test. Additional experiments were repeated four and eight times; combined results were compared using paired t test (CD11b: R848, P<0.0001; LPS, P=0.0002; PAM, P<0.0001; CpG DNA, P<0.0001; CD66b: R848, P<0.0001; LPS, P<0.0001; PAM, P<0.0001; CpG DNA, P=0.014).
Neutrophils were activated by LPS (1 μg/mL), R848 (2 μg/mL), PAM3CSK4 (5 μg/mL), Loxoribine (0.1 mM), CL075 (2.5 μg/mL) or CpG DNA (2 μg/mL) for 30 minutes, followed by analysis of cell surface expression of CD32A (IV.3; Stemcell Technologies, FUN-2, BioLegend), CD16 (clone 3G8), CD64 (clone 10.1), and CD66b (all from BioLegend) by flow cytometry. For intracellular staining, neutrophils were fixed in 2% paraformaldehyde for 10 minutes, permeabilized with saponin (diluted 1:1000 in PBS) for 15 minutes and stained with anti-CD32A antibodies diluted 1:100. In some experiments, neutrophils were incubated with inhibitors (DPI (25 μM, Sigma), apocynin (100 μM, Sigma), GM-6001 (10 μM, Enzo Life Sciences), LY294002 (10 μM), cOmplete Protease Inhibitor Cocktail Tablets (1× dissolved in H2O, Roche), neutrophil elastase IV inhibitor (25 μM, Calbiochem), E-64 (1 μM, Sigma), 4-(2-Aminoethyl)benzenesulfonyl fluoride hydrochloride (AEBSF, 0.1 mM, Sigma), CMK (25 μM, Enzo Life Sciences), cytochalasin B (5 μM, Sigma) or chymostatin (10 μg/mL, Sigma)) or recombinant furin (100 ng/mL, maximal dose tolerated by the neutrophils, Peprotech) 30 minutes prior to addition of stimuli. In some experiments cell surface levels of B cell activating factor (BAFF, Biolegend) was analyzed according to the same protocol as described above. Monocytes and pDCs were detected using antibodies to CD14 (BioLegend) and CD304 (Miltenyi Biotech), respectively.
(In general: A flow cytometer gives signals particle by particle.)

Another test concerns neutrophils. Briefly: ROS analysis in neutrophils (DHR123, OxyBURST). The conditions noted are these: flow cytometry and fluorimetry, cell impermeable ROS dye.
Test [2] has as its system FcgRIIA on neutrophils. In words: SLE serum-mediated FcgRIIA shedding on healthy control neutrophils. The conditions noted are these: sera from 6 SLE patients, IV.3/FUN2. As to the method: As neutrophil and monocyte FcgRIIA shedding was highly correlated in SLE patients upon ex vivo analysis (correlation analysis for ex vivo monocyte and neutrophil (PMN) FcgRIIA shedding in SLE patients was performed; combined results were analyzed using Spearman's correlation (r=0.84, P<0.0001)), we asked whether this could be attributed to circulating proteases, likely neutrophil-derived. […] Consistent with a role of RNA ICs, serum-mediated FcgRIIA shedding was higher in patients with anti-Sm/RNP antibodies (sera from 6 SLE patients, pre-incubated with either RNase, a pan-protease inhibitor (prot.inh.), or cytochalasin B (Cyto B, 5 μM) were added to neutrophils from a healthy individual and FcgRIIA shedding analyzed by flow cytometry; combined results were compared using paired t test (RNase: P=0.012; prot.inh.: P=0.0002; Cyto B: P<0.0001)). […] Finally, SLE serum-mediated shedding of FcgRIIA from healthy control neutrophils strongly correlated with the FcgRIIA shedding observed upon ex vivo isolation of the SLE patient's neutrophils (correlation between ex vivo FcgRIIA shedding observed on SLE neutrophils with the shedding ability by the serum obtained from the same SLE patients (n=12); combined results were analyzed by Spearman's correlation (r=0.73, P=0.0096)). […]

In another test the test system is BAFF. Briefly: BAFF cell surface expression on neutrophils. The conditions noted are these: furin 100 ng/mL, 30 minutes before R848. As to the method:
To determine which protease(s) were involved in the shedding of FcgRIIA, neutrophils were incubated with selective protease inhibitors prior to the addition of the TLR agonist. Cell surface levels of FcgRIIA (IV.3) was analyzed by flow cytometry upon R848 activation in the presence of a pan protease inhibitor or inhibitors of matrix metalloproteases (GM6001, 10 μM), cysteine proteases (E-64, 1 μM), serine proteases (AEBSF, 100 μM), neutrophil elastase (Elastase inhibitor IV, 25 μM), cathepsin G (chymostatin, 10 μg/mL) or furin (chloromethylketone (CMK, 25 μM). The experiment was repeated three (E-64), four (Pan Prot.inh., P<0.0001; AEBSF, P=0.0004; chymostatin; and CMK, P=0.0038), five (GM6001), and seven (NEi) times; combined results were compared using paired t test. […] Additionally, neutrophils were incubated with furin (100 ng/mL) or CMK 30 minutes prior to addition of R848. BAFF cell surface expression was analyzed by flow cytometry. […] Briefly, neutrophils were incubated with furin (100 ng/mL) in presence or absence of R848 and analyzed for FcgRIIA levels by flow cytometry. […] Finally, supernatant from activated neutrophils was fractionated and analyzed for capacity to induce shedding of monocyte FcgRIIA without, or with prior boiling of the fractions. […]

In the case of `Cl.NCCc1ccc(S(=O)(=O)F)cc1` [AEBSF, 4-(2-Aminoethyl)benzenesulfonyl fluoride hydrochloride], the “effect on R848 (TLR7/8)-mediated shedding of FcgRIIA on neutrophils” value (from here on “effect on R848”) in the test on FcgRIIA on neutrophils [1] is “dependent on serine proteases”.

Take `CCCc1nc2c(N)nc3ccccc3c2s1` [CL075]: in the test with FcgRIIA on neutrophils [1], the “neutrophil cell surface expression of FcgRIIA after stimulus” value (shortened to “neutrophil cell surface expression”) was “reduced neutrophil cell surface levels of FcgRIIA, but not of FcgRIIIB”.

As for `[Cl-].c1ccc2c(c1)[I+]c1ccccc1-2` [DPI], in the test on FcgRIIA on neutrophils [1], the “effect on R848” value is reported as “completely restored cell surface levels of FcgRIIA”. Besides, the “effect on LPS- or PAM3CSK4-mediated shedding of FcgRIIA” value with FcgRIIA on neutrophils [1] (neutrophils activated with LPS or PAM3CSK4 in presence of DPI) is given as “dependent on NADPH oxidase”.

For the compound `C=CCn1c(=O)n([C@@H]2O[C@H](CO)[C@@H](O)[C@H]2O)c2nc(N)[nH]c(=O)c21` [Loxoribine], the “neutrophil cell surface expression” value in the test with FcgRIIA on neutrophils [1] is listed as “reduced neutrophil cell surface levels of FcgRIIA, but not of FcgRIIIB”.

As for `CCCCCCCCCCCCCC(=O)O[C@@H]1[C@@H](C)[C@@]2(O)[C@@H](C=C(CO)C[C@]3(O)C(=O)C(C)=C[C@@H]23)[C@@H]2C(C)(C)[C@]12OC(C)=O` [PMA], the “cellular localization of ROS generation” value with neutrophils was “induced both intracellular and extracellular ROS generation”.

With `COc1cc(C(C)=O)ccc1O` [apocynin], in the test on FcgRIIA on neutrophils [1], the “effect on R848” value was “completely restored cell surface levels of FcgRIIA”.

In the case of `C=C1[C@@H](C)[C@H]2[C@H](Cc3ccccc3)NC(=O)[C@]23OC(=O)/C=C/[C@H](O)CCC[C@@H](C)C/C=C/[C@H]3[C@@H]1O` [cytochalasin B], in the test on FcgRIIA on neutrophils [2], the “effect on SLE serum-mediated FcgRIIA shedding” value is “almost completely abrogated serum-mediated FcgRIIA shedding”.

As to PAM3CSK4, in the test on FcgRIIA on neutrophils [1], the “neutrophil cell surface expression” value is given as “reduced neutrophil cell surface levels of FcgRIIA, but not of FcgRIIIB”.

For the compound “furin: recombinant furin, pro-protein convertase (Peprotech)”, the “effect on R848” value with FcgRIIA on neutrophils [1] is “did not affect FcgRIIA shedding on neutrophils”. Further, in the test on BAFF, the “BAFF cell surface expression” value was “increased cell surface BAFF levels”.

For the origin of these results see patent US20260133193A1, “COMPOSITIONS AND METHODS FOR TREATING INFLAMMATORY DISEASES” (University of Washington, priority 2018, published 2026).
